The source made the active and inactive calls.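 How the source made its calls: active means mean IC50 for reducing PEG3 promoter reporter signal at or below a set limit, with IC50 above the limit in both counter screens; inactive means the rest, including counter screen hits.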
Assays:
Assay in all cases: Peg3 promoter luciferase inhibitors, potency, dose response, cell-based, HeLa, CREF/GAPDH counter-screen panel (AID 624167)
PEG-3 [1] = conditions: HeLa PEG-Prom luciferase reporter, overnight, CREF/GAPDH counter-screens
PEG-3 [2] = molecular target: PEG-3 (UniProt Q6IN02); conditions: HeLa PEG-Prom luciferase reporter, overnight, CREF/GAPDH counter-screens, mean of runs
Rat fibroblasts (CREF) = conditions: CREF/GAPDH counter-screens
[3] = run 1, dose range 1, individual replicate IC50 per panel
[4] = run 2, dose range 1, individual replicate IC50 per panel

Chain of PEG-3 (UniProt Q6IN02) (Q6IN02 whole entry, looked up): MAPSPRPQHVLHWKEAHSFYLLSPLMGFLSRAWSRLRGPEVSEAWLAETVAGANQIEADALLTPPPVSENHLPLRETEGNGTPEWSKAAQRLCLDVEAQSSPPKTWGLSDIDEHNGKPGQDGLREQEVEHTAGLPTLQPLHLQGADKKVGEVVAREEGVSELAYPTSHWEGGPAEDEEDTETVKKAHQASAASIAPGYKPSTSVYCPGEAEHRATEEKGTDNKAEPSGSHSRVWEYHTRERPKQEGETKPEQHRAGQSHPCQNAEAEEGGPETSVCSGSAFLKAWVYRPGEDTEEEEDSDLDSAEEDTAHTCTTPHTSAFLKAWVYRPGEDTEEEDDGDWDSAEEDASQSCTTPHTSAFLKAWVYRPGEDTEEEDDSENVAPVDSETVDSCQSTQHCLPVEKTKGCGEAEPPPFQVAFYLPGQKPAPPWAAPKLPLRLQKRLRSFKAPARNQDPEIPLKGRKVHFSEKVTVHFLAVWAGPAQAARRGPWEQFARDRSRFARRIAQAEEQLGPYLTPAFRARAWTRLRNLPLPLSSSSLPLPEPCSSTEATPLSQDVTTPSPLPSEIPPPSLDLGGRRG

SMILES | IC50 (PEG-3 [1]; [3]) | IC50 (PEG-3 [1]; [4]) | IC50 (PEG-3 [2]) | IC50 (Rat fibroblasts (CREF); mean of runs) | IC50 (Rat fibroblasts (CREF); [3]) | IC50 (Rat fibroblasts (CREF); [4])
Cc1cc(/C=N/Nc2ncnc(N)c2[N+](=O)[O-])c(C)n1-c1ccccc1 | 9.88 µM | 12 µM | 11 µM | 1.79 µM | 1.54 µM | 2.04 µM
O=C(Nc1nc2cc3c(cc2s1)OCCO3)C1=COCCO1 | 0.431 µM | 0.622 µM | 0.526 µM | 0.924 µM | 0.575 µM | 1.27 µM
CCCOc1ccc2cc(-c3ccccn3)c(=O)oc2c1 | 2.05 µM | 4.96 µM | 3.51 µM | 1.33 µM | 1.09 µM | 1.58 µM
CCOC(=O)c1c(-n2c(C)cc(C=C3C(=O)NC(=S)NC3=O)c2C)sc2c1CCCC2 | 5.9 µM | 5.47 µM | 5.69 µM | 11.3 µM | 20.3 µM | 2.35 µM
Cc1cc(C(=O)CN2C(=O)c3ccccc3S2(=O)=O)c(C)n1CC1CCCO1 (centres undefined) | 0.76 µM | 0.375 µM | 0.568 µM | 3.91 µM | 1.95 µM | 5.86 µM
O=C(N/N=C/c1cccs1)c1n[nH]c2c1CCCC2 | 3.45 µM | 6.93 µM | 5.19 µM | 6 µM | 5.1 µM | 6.91 µM
CCOc1ccc(C(=O)O/N=C(\N)c2ccccn2)cc1 | 5.04 µM | 1.77 µM | 3.41 µM | 2.25 µM | 2.35 µM | 2.15 µM
COc1ccc2c(c1)sc1nc(-c3ccccc3)cn12 | 2.46 µM | 1.7 µM | 2.08 µM | 0.403 µM | 0.323 µM | 0.484 µM
Cc1cc(N2CCN(C)CC2)ccc1NC(=O)c1c2c(nc3ccccc13)CCN(Cc1ccccc1)C2 | 5.6 µM | 12.2 µM | 8.92 µM | 3.01 µM | 2.44 µM | 3.59 µM
Cc1ccccc1-c1nc(-c2ccccn2)no1 | 2.98 µM | 4.81 µM | 3.9 µM | 1.33 µM | 1.08 µM | 1.57 µM
O=C(Nc1ccc(N2CCOCC2)cc1)c1cnsn1 | 2.8 µM | 1.47 µM | 2.13 µM | 2.59 µM | 2.51 µM | 2.68 µM
CN[C@H]1C[C@H]2c3[nH]c4ccc(-c5ccc(OC)cc5)cc4c3CCN2C(=O)[C@H]1[C@H](C)O | 12.5 µM | 8.39 µM | 10.5 µM | 16.1 µM | 16.9 µM | 15.3 µM
COc1ccc(S(=O)(=O)/N=C2\C=C(Nc3ccc(O)cc3)C(=O)c3ccccc32)cc1 | 2.5 µM | 2.65 µM | 2.58 µM | 1.63 µM | 1.38 µM | 1.88 µM
CC(C)CC(N)c1csc(Nc2ccc(C(=O)c3ccccc3)cc2)n1 (centres undefined) | 31.1 µM | 29.8 µM | inactive |  |  | 
O=C1NC(Cc2ccc(O)cc2)c2nc3ccc(F)cc3c(=O)n2-c2cc3ccccc3cc21 (centres undefined) | 19.9 µM | 34.4 µM | inactive |  |  | 
CC(C)(C)c1ccc(OCCCNCc2ccccc2)cc1 | 28.8 µM | 18.3 µM | inactive |  |  | 
O=C1c2ccccc2S(=O)(=O)N1Cc1nc2ccccc2s1 | 8.32 µM | 14.3 µM | 11.3 µM |  |  | 
COc1ccc(Nc2oc(COc3ccccc3OC)nc2C#N)cc1 | 5.83 µM | 39.4 µM | inactive |  |  | 
COc1ccc(-c2nsc3c(N4CCCCC4C)ncnc23)cc1 (centres undefined) | 17.5 µM | 14 µM | 15.7 µM |  |  | 
O=Cc1cn(Cc2cccc(F)c2)c2ccccc12 | 22.6 µM | 38.8 µM | inactive |  |  | 

SMILES | IC50 (PEG-3 [1]; [3]) | IC50 (PEG-3 [1]; [4]) | IC50 (PEG-3 [2]) | IC50 (Rat fibroblasts (CREF); mean of runs) | IC50 (Rat fibroblasts (CREF); [3]) | IC50 (Rat fibroblasts (CREF); [4])
Cc1c(C(=O)N2CCN(c3ccc(F)cc3)CC2)sc2ncnc(N3CCN(c4ccccn4)CC3)c12 | 11.9 µM | 15.6 µM | 13.7 µM |  |  | 
CNCC(O)c1cc(OCc2ccccc2)c(OCc2ccccc2)cc1F (centres undefined) | 20.8 µM | 16.3 µM | 18.5 µM |  |  | 
Cc1noc(-c2ccc(Cl)cc2)c1C(=O)O/N=C(\N)c1ccc(C(C)(C)C)cc1 | 17.3 µM | 9.17 µM | 13.2 µM |  |  | 
CCCn1c(=N)n(CC(=O)c2ccc(Cl)cc2)c2ccccc21 | 19.1 µM | 49.4 µM | inactive |  |  | 
CCC1=C(CC2NCCc3ccccc32)CC2c3cc(OC)c(OC)cc3CCN2C1 (centres undefined) | 15.1 µM | 13.3 µM | 14.2 µM |  |  | 
CC(C)n1cc(CN2CCC(C(=O)Nc3cccc(-c4cccc(Cl)c4)c3)CC2)cn1 | 17.4 µM | 9.39 µM | 13.4 µM |  |  | 
O=C(c1cc(-c2cccs2)nn1-c1ccccc1)N1CCN(S(=O)(=O)c2ccccc2)CC1 | 8.84 µM | > 100 µM | inactive |  |  | 
CCCC(=O)N1CCCC(c2cc(C(=O)Nc3ccccc3)no2)C1 (centres undefined) | 8.68 µM | 14.3 µM | 11.5 µM |  |  | 
COc1ccc(CN(C)C(=O)C(Cc2ccccc2)NC(=O)c2ccccc2)cc1F (centres undefined) | 60.5 µM | 65.3 µM | inactive |  |  | 
Cc1ccccc1CN1Cc2cnnn2-c2ccccc2C1C#N (centres undefined) | 15.6 µM | 12.1 µM | 13.9 µM |  |  | 
O=C1CSC(=S)N1Cc1cccnc1 | 28.3 µM | 7.51 µM | 17.9 µM |  |  | 
COc1cccc(/C=C2/Sc3ccc(C(=O)NCCCN4CCCC4)cc3NC2=O)c1 | 21.4 µM | 12.8 µM | 17.1 µM |  |  | 
CCOc1cccc2sc(N(CCCN(C)C)C(=O)c3ccc(S(=O)(=O)N(CC)Cc4ccccc4)cc3)nc12 | 19.1 µM | 11.8 µM | 15.4 µM |  |  | 
CC1CCCCN1CCNC(=O)c1ccc2c(=O)n(Cc3ccc(Cl)cc3)c(=S)[nH]c2c1 (centres undefined) | 19.6 µM | 25.3 µM | inactive |  |  | 
Nc1nc(CCl)nc(Nc2cccc3ccccc23)n1 | > 100 µM | > 100 µM | > 100 µM (inactive) |  |  | 
CN(C)CC1CCC/C(=C\c2ccc(OC(=O)/C=C/c3ccccc3)cc2)C1=O (centres undefined) | 21.8 µM | 7.3 µM | 14.6 µM |  |  | 
CC(C(=O)NC1CCCC1)N(C(=O)Cn1nnc(-c2ccc(F)cc2)n1)c1ccccc1F (centres undefined) | 22.9 µM | 69.9 µM | inactive |  |  | 
CN(C)c1ccc(C(C(=O)NCc2ccccc2)N(Cc2ccco2)C(=O)c2snc(C(N)=O)c2N)cc1 (centres undefined) | > 100 µM | > 100 µM | > 100 µM (inactive) |  |  | 
N#Cc1cc2c(nc1SC1CC(=O)N(c3ccccc3)C1=O)CCC2 (centres undefined) | > 100 µM | 1.02 µM | inactive |  |  | 
COc1ccc(C23CC4CC(CC(C4)C2)C3)cc1C(=O)NCCN(C)C | 20.6 µM | 29.9 µM | inactive |  |  | 

SMILES | IC50 (PEG-3 [1]; [3]) | IC50 (PEG-3 [1]; [4]) | IC50 (PEG-3 [2]) | IC50 (Rat fibroblasts (CREF); mean of runs) | IC50 (Rat fibroblasts (CREF); [3]) | IC50 (Rat fibroblasts (CREF); [4])
COC(=O)C1=C(C)N(Cc2ccccc2)C(=NCc2cccc(Cl)c2)N[C@H]1c1ccccc1 | 19.1 µM | 12.7 µM | 15.9 µM |  |  | 
O=C(CCN1C(=O)/C(=C/c2cccs2)SC1=S)N1CCCCC1 | 24.6 µM | 25.5 µM | inactive |  |  | 
C[C@@]12C(=O)Nc3cc(Cl)ccc3C(=O)N1[C@H]1c3cc(Cl)ccc3OC[C@@H]1[C@@H]2c1ccccc1 | 16.3 µM | 6.77 µM | 11.5 µM |  |  | 
O=S(=O)(NC1CC(NS(=O)(=O)OCC(Cl)(Cl)Cl)C2CCCCC12)OCC(Cl)(Cl)Cl (centres undefined) | 10.8 µM | 11.9 µM | 11.4 µM |  |  | 
O=C(NC1CCCCC1)Sc1ccc(Cl)cc1 | 30.7 µM | 19.3 µM | inactive |  |  | 
CCN(CC)CCNc1cccc2sc3ccccc3c(=O)c12 | 18.3 µM | 25.6 µM | inactive |  |  | 
CN(C)CCCN1c2ccccc2Sc2ccc3ccccc3c21 | 17.7 µM | 16 µM | 16.9 µM |  |  | 
CC1(C)Cc2c(C#N)c(N3CCNCC3)nc(-c3ccco3)c2CS1 | 22.7 µM | 17.2 µM | 19.9 µM |  |  | 
O=C1OCCC1Sc1nnc(-c2ccc(Cl)cc2Cl)o1 (centres undefined) | 6.82 µM | 35.5 µM | inactive |  |  | 
c1ccc(-c2cc(-c3ccccc3)[n+](-c3ccccc3)c(-c3ccccc3)c2)cc1 | 10.7 µM | 13.9 µM | 12.3 µM |  |  | 
CCOC(=O)/C(=C\c1ccccc1)C(=O)CCN1CCOCC1 | 16.6 µM | 9.98 µM | 13.3 µM |  |  | 
COc1ccc(CNCCC(c2ccccc2)c2ccc(OC(C)C)cc2)cc1OC (centres undefined) | 18.1 µM | 19.5 µM | 18.8 µM |  |  | 
O=c1[nH]c(=S)[nH]c(O)c1/C=C1\C=Nc2ccccc21 | > 100 µM | 17.6 µM | inactive |  |  | 
Cn1cccc1/C=C1/C(=O)NC(=S)N(Cc2ccc(F)cc2)C1=O | 31.9 µM | 38.1 µM | inactive |  |  | 
CC(C)(C)c1ccc(CN2N=Nc3ccccc3S2(=O)=O)cc1 | 30.6 µM | 40.1 µM | inactive |  |  | 
C=CCN=C1NN=C(c2cc(C)n(CC=C)c2C)CS1 | 11.5 µM | 23.3 µM | 17.4 µM |  |  | 
CC1(Cc2ccc(Cl)c(Cl)c2)C(=O)Nc2ccc(S(=O)(=O)NC3CCCCC3)cc21 (centres undefined) | 18.1 µM | 17.2 µM | 17.7 µM |  |  | 
CC(Cc1ccccc1)NCCC(c1ccccc1)c1ccccc1 (centres undefined) | 19.9 µM | 19.1 µM | 19.5 µM |  |  | 
Cc1ccc(C)c(NP(=O)(Oc2ccccc2)Oc2ccccc2)c1 | 28.7 µM | 19.1 µM | inactive |  |  | 
CCOc1ccc2nc(N(CCCN(C)C)C(=O)c3ccc(C(=O)c4ccccc4)cc3)sc2c1 | 20.3 µM | 7.58 µM | 13.9 µM |  |  | 
